Laboratory results published in patent publication US20140025310A1, “METHOD FOR DETERMINING THE EFFICACY OF A COMBINATION THERAPY” (priority 2009, published 2014).

Assays:
[1] = tested on: patient's virus; test: Susceptibility score of the patient's virus to a drug (% activity from clinical cut-off models); set-up: species or system HIV-1; conditions: 1 = fully sensitive, 0 = fully resistant
Source text: Interpretation algorithms provide a resistance call for each available HIV drug. Often this is a three way classification i.e. sensitive (a score of 1), intermediate resistant (a score of 0.5) or resistant (a score of 0). For VircoType (WO 01/79540) the interpretation is for instance based on a statistical model, leading to the definition of so called clinical cut-offs (CCO), that predicts the % activity of a drug (i.e. the susceptibility score) as a function of fold change at the start of the regimen. The % activity left was calculated by dividing the predicted viral load change for the patients' virus with a certain resistance profile by the predicted viral load for a wild-type virus. This is an ordinal value that varies between 0% (or a score of 0) and 100% (or a score of 1). Based on these values, clinical cutoffs (phenotypic threshold values) were derived to classify a virus sample into maximal response, reduced response and minimal response as described in WO 2005/086061.
(§1) Therefore, statistical models were applied to handle these differences. […] E.g.

[2] = tested on: HIV-1; conditions: difference in viral load response (log scale) vs ritonavir boosted lopinavir after 8 weeks of stable treatment; double robust estimation
Source text: as §1

Molecule	susceptibility score ([1]; Patient 1 virus)	susceptibility score ([1]; Patient 2 virus)	Weight (drug weight) [2]
O=c1[nH]cnc2c1ncn2[C@H]1CC[C@@H](CO)O1 [DDI]	1	–	–
O=C1Nc2ccc(Cl)cc2[C@@](C#CC2CC2)(C(F)(F)F)O1 [EFV]	–	fully active	–
CC(C)OC(=O)OCOP(=O)(CO[C@H](C)Cn1cnc2c(N)ncnc21)OCOC(=O)OC(C)C.O=C(O)/C=C/C(=O)O [TDF]	1	1	–
atazanavir [ATV/r]	–	1	−0.02
lopinavir [LPV/r]	0.24	–	0
